Experimental data from PubChem BioAssay (NCI).
“And” between values parts separate entries of the source, which are not always exact repeats. Equal values may be shown once.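 All cell lines were grown in 96-well plates and treated with compound for 48 hours. GI50 = concentration required for 50% inhibition of growth. TGI denotes the concentration required for complete inhibition of growth.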

How the values were obtained:
Experiment in all cases: inhibition of tumour cell growth, NCI panel, 48 h
A549 NSCLC = tested on: A549 NSCLC
DU-145 prostate = tested on: DU-145 prostate
MALME-3M melanoma = tested on: MALME-3M melanoma
MCF7 breast = tested on: MCF7 breast
MDA-MB-231 breast = tested on: MDA-MB-231 breast
NCI-H460 lung = tested on: NCI-H460 lung
NCI/ADR-RES ovarian = tested on: NCI/ADR-RES ovarian
PC-3 prostate = tested on: PC-3 prostate
TK-10 renal = tested on: TK-10 renal
SNB-75 CNS = tested on: SNB-75 CNS

SMILES	GI50 (A549 NSCLC) [µM]	TGI (A549 NSCLC) [µM]	GI50 (DU-145 prostate) [µM]	TGI (DU-145 prostate)	GI50 (MALME-3M melanoma) [µM]	TGI (MALME-3M melanoma) [µM]	GI50 (MCF7 breast) [µM]	TGI (MCF7 breast) [µM]	GI50 (MDA-MB-231 breast) [µM]	TGI (MDA-MB-231 breast) [µM]	GI50 (NCI-H460 lung) [µM]	TGI (NCI-H460 lung) [µM]	GI50 (NCI/ADR-RES ovarian) [µM]	TGI (NCI/ADR-RES ovarian) [µM]	GI50 (PC-3 prostate) [µM]	TGI (PC-3 prostate)	GI50 (TK-10 renal) [µM]	TGI (TK-10 renal) [µM]	GI50 (SNB-75 CNS) [µM]	TGI (SNB-75 CNS) [µM]
Oc1ccc(/C=N/NC(=S)Nc2ccccc2)nc1	2.33	26.3	1.1	> 100 µM	2.19	30.6	2.73	> 100	0.729	> 100	2.77	> 100	1.43	> 100	0.706	> 100 µM	4.18	> 100	–	–
N#Cc1c(-c2ccccc2)nc(SCC(O)CN2CCOCC2)nc1N1CCOCC1 (stereo not drawn)	6.43	> 100	24.5	> 100 µM	4.73	> 100	0.098	8.51	8.36	> 100	7.03	> 100	39.5	> 100	2.42	7.7 µM	10.9	> 100	1.36	11.1
CCOC(=O)C(Cc1ccccc1)n1c(O)c(/C=N/c2ncc(Cc3ccc(Cl)cc3Cl)s2)sc1=S (stereo not drawn)	3.68	> 100	3.9	> 100 µM	2.77	9.25	2.36	> 100	3.88	21.4	2.09	12.4	2.56	15.1	2.08	> 100 µM	–	–	2.81	21.4
COC(=O)C1C(=O)C(C(=O)OC)C2CCC1N2C (stereo not drawn)	–	> 100	–	> 100 µM	–	51.9	–	> 100	–	> 100	–	> 100	–	> 100	–	> 100 µM	–	> 100	–	> 100
CCCCNC(=O)CC1=C(C)/C(=C/c2[nH]c(-c3ccc[nH]3)cc2OC)N=C1C	3.6	11.2	4	16.6 µM	2.28	5.43	2.7	9.39	1.48	8.04	2.71	11.7	3.02	9.89	2.36	14.5 µM	2.83	8.8	1.85	7.36
CN1C(=O)[C@@H](CC2CCCC2)N(C2CCCC2)c2nc(Nc3cc(Cl)c(O)c(Cl)c3)ncc21	22.1	> 100	27.6	> 100 µM	20.7	75.2	15.2	> 100	–	–	23.5	90.3	20.7	> 100	14.1	> 100 µM	27.2	> 100	–	–
Cc1cc2c3c(nc4ccccc42)C(=O)c2cccnc2-c3n1	0.372	1.84	0.3	1.48 µM	0.426	1.39	0.0212	0.156	0.644	5.56	0.162	1.06	0.489	–	0.304	3.04 µM	–	–	0.833	3.09
O=C(CC(=O)N1N=C(n2ccc3ccccc32)CC1c1ccccc1)Nc1ccccc1Cl (stereo not drawn)	–	> 100	–	–	–	> 100	–	–	–	–	–	> 100	–	–	–	–	–	> 100	–	> 100
N#CC(Cl)CS(=O)(=O)c1ccccc1 (stereo not drawn)	–	41.7	–	32.4 µM	–	4.54	–	32.8	–	41.4	–	38.8	–	–	–	31.6 µM	–	6.85	–	37.1
C/C(=C\CNc1ncnc2c1ncn2C1CCCCO1)COP(=O)(O)O (stereo not drawn)	–	> 100	–	–	–	> 100	–	–	–	–	–	> 100	–	–	–	–	–	> 100	–	> 100
O=C(CCl)N1CCN(c2ccccc2)CC1	–	43.3	–	> 100 µM	–	42.8	–	42.4	–	–	–	34.9	–	> 100	–	59.4 µM	–	34.8	–	32.5
[pH]1p2[pH]p3p1p3[pH]2.c1cc[c]([Ge]([c]2ccccc2)[c]2ccccc2)cc1.c1cc[c]([Ge]([c]2ccccc2)[c]2ccccc2)cc1.c1cc[c]([Ge]([c]2ccccc2)[c]2ccccc2)cc1	25.4	> 100	–	–	14.3	28.1	–	–	–	–	6.95	27.5	–	–	–	–	18.5	33.5	10.1	32.4
CC(=O)CCC[C@@H](C)[C@@H]1O[C@H]([C@@]2(C)CCC(=O)O2)CC2[C@H]1OC(=O)C21CC1 (stereo partly drawn)	> 100	> 100	–	–	–	–	22.3	> 100	> 100	> 100	39.7	> 100	71.3	> 100	52.5	> 100 µM	–	–	> 100	> 100
CC(=O)NNc1nc(C)c(C(=O)/C=C/c2ccc(N(C)C)cc2)s1	–	> 100	–	–	–	> 100	–	–	–	–	–	> 100	–	–	–	–	–	> 100	–	> 100
COc1ccc(N=Nc2c(-c3ccccc3)nn(C(=O)CC(=O)Nc3ccc(OC)cc3)c2-c2ccccc2)cc1	–	> 100	–	–	–	> 100	–	–	–	–	–	> 100	–	–	–	–	–	> 100	–	37.9
NC(N)=NCCCC(Nc1c2ccccc2nc2ccccc12)C(=O)O (stereo not drawn)	–	> 100	–	–	–	> 100	–	–	–	–	–	> 100	–	–	–	–	–	> 100	–	> 100
O=C1NC(c2cccc3ccccc23)Nc2ccc(Cl)cc21 (stereo not drawn)	–	> 100	–	0.169 µM and 1.43 µM	–	37.7	0.0129	> 100	–	30.3	–	0.279	–	0.0115	–	0.0148 µM and 0.0143 µM	–	–	–	0.000902
C=C1CC[C@@](C)(c2cc(Br)c(C)cc2OC(C)=O)[C@H]1C	12.3	26.5	15.9	31.9 µM	15.2	30.5	12.8	28	12.5	25.9	11.3	25	12.1	25	11.1	24.2 µM	12	25	–	–
O=C(CC(O)(C(F)(F)F)C(F)(F)F)c1cccs1	–	> 10	–	> 10 µM	–	> 10	–	> 10	–	> 10	–	–	–	> 10	–	> 10 µM	–	> 10	–	> 10
